This is an account of results in patent US6310176A, “Antimicrobially active polypeptides” (SBL Vaccin AB, priority 1996, dated 2001).

For data set [1], the system named is Bacillus megaterium BM11. The following applies: B. megaterium BmII; cecropin data from Hultmark et al. (1983); cited from earlier work.
The subject of data set [2] is Staphylococcus aureus Cowan1. The following applies: S. aureus Cowan1; cecropin data from Hultmark et al. (1983); cited from earlier work.
The next data set concerns Y. pseudotubercolosis. Particulars: cecropin data from Hultmark et al. (1983); cited from earlier work.
For data set [3], the system named is Escherichia coli D21. Particulars: E. coli D21; cecropin data from Hultmark et al. (1983); cited from earlier work.
For data set [4], the system named is Human red cells. The following applies: cecropin data from Hultmark et al. (1983); cited from earlier work.
Data set [5] deals with Human red cells. Kind of data set: Red blood cell lysis. It counts as cell-based.
For data set [6], the system named is Bacillus megaterium BM11. Kind of data set: Antimicrobial inhibition zone assay, B. megaterium. Type of data set: cell-based. The following applies: B. megaterium BmII; inhibition zones on agarose plates. As for the experimental part:
(§1) Antimicrobial assay. The antibacterial activity was tested against Bacillus megaterium BM11, Staphylococcus aureus Cowahl, Streptococcus pyogenes b hemolytic group A, Pseudomonas aeruginosa ATCC 15692, Escherichia coli D21, E. coli D21e7, E. coli D21f1, E. coli D21f2 and E. coli D22, using an inhibition zone assay on LB broth/1% agarose plates seeded with 2×10^5 viable bacteria (Hultmark, D., Engstrom, A., Andersson, K., Steiner, H., Bennich, H. & Boman, H. G. (1983) Insect immunity. Attacin, a family of antibacterial proteins from Hyulophora cecropin, EMBO J. 2, 571-576). Fresh cultures of Candida albicans ATCC 10261 were inoculated in WB broth, pH 6.5, and grown at 37° C. to approximately 0.6 OD600. Before plating, cultures were diluted 300 fold and then incubated overnight at 37° C. in the presence of the test peptide, the concentration of which was established by amino acid analysis. Inhibition zones were measured and the lethal concentration (LC, the lowest concentration that inhibits the growth) was calculated from the diameter of the zones obtained in serial dilutions of the test substance by using the formula given in Hultmark, D., Engstrom, A., Andersson, K., Steiner, H., Bennich, H. & Boman, H. G. (1983) Insect immunity. […] Values are expressed as the mean of at least 5 experiments with a divergence of not more than one dilution step.

In data set [7] the test system is Staphylococcus aureus Cowan1. Kind of data set: Antimicrobial inhibition zone assay, S. aureus. Type of data set: cell-based. The following applies: inhibition zones on agarose plates. As for the experimental part: as §1
Data set [8] has as its system Escherichia coli D21. Kind of data set: Antimicrobial inhibition zone assay, E. coli D21. It counts as cell-based. Particulars: Table 2. Here is the method:
as §1, with “step. […]” for “step.”

Like-named read-outs stand apart in the source and are kept apart here. Where no end group is shown, it is not given here.

For the compound “Cecropin A: cecropin from insect hemolymph (KWKLFKKIEKVGQNIRDGIIKAGPAVAVVGQATQIAK; ends and bridges not checked; UniProt P01507 27-63, looked up)”, the Lethal concentration in the data set with Bacillus megaterium BM11 [1] was 0.5 µM; in [2], greater than 200 µM; in the data set with Y. pseudotubercolosis, 0.5 µM; with Escherichia coli D21 [3], 0.3 µM. In the data set on Human red cells [4], the “Lethal concentration (lytic activity)” value is greater than 400 µM.
Regarding LLPIVGNLLKSLL-NH2 [Temporin B], the “Lethal concentration (lytic activity)” value in the data set with Human red cells [5] was greater than 120 µM.
Turning to FLPLIGRVLSGIL-NH2 [Temporin A], in the data set on Human red cells [5], the “Lethal concentration (lytic activity)” value is greater than 120 µM.
Still for that read-out and setting: the value for FIGSALKVLAGVLPSVISWVKQ-NH2 [MLP] was 0.5 µM.
Turning to `CC[C@H](C)[C@H](NC(=O)CN)C(=O)NCC(=O)N[C@@H](C)C(=O)N[C@H](C(=O)N[C@@H](CC(C)C)C(=O)N[C@@H](CCCCN)C(=O)N[C@H](C(=O)N[C@@H](CC(C)C)C(=O)N[C@H](C(=O)N[C@H](C(=O)NCC(=O)N[C@@H](CC(C)C)C(=O)N1CCC[C@H]1C(=O)N[C@@H](C)C(=O)N[C@@H](CC(C)C)C(=O)N[C@H](C(=O)N[C@@H](CO)C(=O)N[C@@H](Cc1c[nH]c2ccccc12)C(=O)N[C@H](C(=O)N[C@@H](CCCCN)C(=O)N[C@@H](CCCNC(=N)N)C(=O)N[C@@H](CCCCN)C(=O)N[C@@H](CCCNC(=N)N)C(=O)N[C@@H](CCC(N)=O)C(=O)N[C@@H](CCC(N)=O)C(N)=O)[C@@H](C)CC)[C@@H](C)CC)[C@@H](C)O)[C@@H](C)O)C(C)C)C(C)C` [Melittin], the Lethal concentration with Bacillus megaterium BM11 [6] is 0.6 µM; in [7], 0.2 µM; with Escherichia coli D21 [8] it was 0.8 µM. Also, the “Lethal concentration (lytic activity)” value with Human red cells [5] was found to be 0.9 µM.
